Experimental data taken from patent US20100178249A1, “IMAGING MEDIUM COMPRISING LACTATE AND HYPERPOLARISED 13C-PYRUVATE” (priority 2006, published 2010).

Legend:
Assay type in all cases: cell-based
[1] = tested on: EL4 murine lymphoma cells; experiment: 13C-MR spectroscopy of hyperpolarised 13C-label flux between pyruvate and lactate in EL4 cells; conditions: cells treated with both the PARP inhibitor and etoposide
Description: (§1) EL4 murine lymphoma cells (10^8 cells) were treated with 15 μM etoposide (PCH Pharmachemie BV, Harleem), a compound which is known to induce cell death after 16 h exposure. A separate set of cells was treated for 16 hours with 15 μM etoposide plus 20 mM nicotinamide, a known PARP inhibitor. Cell death (apoptosis and necrosis) was confirmed by acridine orange and propidium iodide staining. The cells were washed 3 times with RPMI 1640 growth medium containing 10% FCS at 37° C. and to 2 ml of the etoposide- and etoposide/nicotinamide treated EL4 cell suspension 2 ml of the imaging medium according to Example 2 were added. The final cell suspension thus contained 30 mM hyperpolarised ^13C1-pyruvate and 37.5 mM lactate.
^13C-signal intensities from ^13C-pyruvate and ^13C-lactate in etoposide-treated EL4 cell suspensions as described in 3.1 were followed over a time period of 240 seconds from the time of addition of the imaging medium. […]
^13C-signal intensities from ^13C-pyruvate and ^13C-lactate in etoposide-treated and etoposide/nicotinamide treated EL4 cell suspensions as described in 3.1 were followed over a time period of 240 seconds from the time of addition of the imaging medium. […] The data were fit to a two-site exchange model based on the modified Bloch equations, and the rate constants for the forward and reverse exchange ^13C-fluxes were determined. […]

[2] = tested on: EL-4 murine lymphoma cells; experiment: 31P-NMR measurements on acid-extracts of EL-4 cells induced to undergo cell death
Source text: Loss of NAD(H) can be explained by DNA-damage induced activation of the enzyme poly-ADP-ribose polymerase (PARP), which polyadenylates various proteins and uses NAD^+ as a substrate. There was also an increase in the resonances from the glycolytic intermediate, fructose-1,6-bisphosphate (FBP), which can be explained by inhibition of the glycolytic enzyme, glyceraldehyde 3-phosphate dehydrogenase (GAPDH), through loss of its coenzyme NAD(H). Inhibition of PARP activity with a competitive inhibitor (20 mM nicotinamide) or 3-aminobenzamide (10 mM) inhibited the loss of NAD(H) and the increase in FBP concentration observed in apoptotic cells.

[3] = tested on: EL4 murine lymphoma cells; experiment: Cell death by acridine orange and propidium iodide staining / fluorescence microscopy; conditions: for morphological features of dying cells: cells treated with both the PARP inhibitor and etoposide, fluorescence microscopy
Description: as §1

[4] = etoposide-treated cells compared to untreated control cells

Row | Structure (SMILES) | ability to transfer the hyperpolarised 13C-label between the pyruvate and lactate pools [1] | increase in FBP concentration observed in apoptotic cells ([2]; 3-aminobenzamide 10 mM) | loss of NAD(H) observed in apoptotic cells ([2]; 3-aminobenzamide 10 mM) | morphological features of dying cells [3] | intensity of the resonances from NAD(H) [2, 4] | resonances from fructose-1,6-bisphosphate (FBP) [2, 4] | cell death (apoptosis and necrosis) ([3]; 15 μM etoposide, 16 h exposure) | increase in FBP concentration observed in apoptotic cells ([2]; 20 mM nicotinamide) | loss of NAD(H) observed in apoptotic cells ([2]; 20 mM nicotinamide)
1 | NC(=O)c1cccc(N)c1 [3-aminobenzamide] | maintained | inhibited | inhibited | still exhibiting the common morphological features of dying cells | – | – | – | – | –
2 | COc1cc([C@@H]2c3cc4c(cc3[C@@H](O[C@@H]3O[C@@H]5CO[C@@H](C)O[C@H]5[C@H](O)[C@H]3O)[C@H]3COC(=O)[C@H]23)OCO4)cc(OC)c1O [etoposide] | – | – | – | – | decrease | increase | confirmed | – | –
3 | NC(=O)c1cccnc1 [nicotinamide] | maintained | – | – | still exhibiting the common morphological features of dying cells | – | – | – | inhibited | inhibited
